Test [1] relates to TNFα release from LPS activated THP-1 cells or PBMC's. Briefly: p38 Functional Assay (TNFα release after LPS). The format is cell-based. Conditions: Homo sapiens, 1 h pre-treatment, 0.3% DMSO, read-out: EC50 (inhibition of TNFα release). The protocol: Inhibition of cellular p38 depresses the release of TNFα, a functional response which is quantified by measurement of the amount of TNFα in the supernatants of LPS activated THP-1 cells (an immortalised monocytic cell line) or peripheral blood mononuclear cells (PBMC's) isolated from freshly drawn human blood.
Cells seeded in 96 well plates are pre-treated by the addition of p38 inhibitors for 1 h followed by addition of lipopolysaccharide (LPS) to activate cytokine production and release. The amount of TNFα released into the cell supernatants is quantified using an R&D Systems enzyme linked immunosorbant assay (ELISA) kit (product DY210) following the manufacturers instructions.
Compounds are diluted in DMSO prior to addition, the final DMSO concentration in the assay being 0.3%. The EC50 is defined as the concentration at which a given compound achieves 50% inhibition of the control.

Test [2] concerns BAL cell influx induced by tobacco smoke. Briefly: Tobacco smoke induced pulmonary inflammation, mouse model of COPD inflammation. It counts as in vivo. Conditions: mice, intranasal, 30, 100 or 300 μg/kg, 4 days TS, BAL 24 h after final exposure (FIG. 1). The protocol: Pre-clinical mouse model of COPD inflammation—Tobacco smoke induced pulmonary inflammation. […] In this exposure protocol, mice were exposed in groups of 5 in individual clear polycarbonate chambers (27 cm×16 cm×12 cm). The TS from the cigarettes was allowed to enter the exposure chambers at a flow rate of 100 ml/min. In order to minimise any potential problems caused by repeated exposure to a high level of TS (6 cigarettes), the exposure of the mice to TS was increased gradually over the exposure period to a maximum of 6 cigarettes. The exposure schedule used for 4 days was as follows: Bronchoalveolar lavage was performed as follows: the trachea was cannulated using a Portex nylon intravenous cannula (pink luer fitting) shortened to approximately 8 mm. […] The cell pellet was re-suspended in a known volume of PBS and total cell numbers calculated by counting a stained (Turks stain) aliquot under a microscope using a haemocytometer. […] When dried and cover-slipped, differential cells were counted using light microscopy. Up to 400 cells were counted by unbiased operator using light microscopy. […] All results are presented as individual data points for each animal and the mean value was calculated for each group. […] Percentage inhibitions were automatically calculated within the Excel spreadsheets for the cell data using the formula below: […]

For a further test, the target named is T1, p38α (Homo sapiens, UniProt Q16539).
T1 construct: purchased Calbiochem 559324; host or cells: E. coli
Briefly: p38 Kinase Assay (ATF-2 phosphorylation ELISA). It counts as biochemical. Conditions: 2 h pre-incubation, ATP 250 μM, 1% DMSO; read-out: p38α inhibition (IC50 values). The protocol:
Human recombinant p38 enzyme expressed in E. coli and activated by incubation with MKK6 enzyme (Calbiochem #559324) is used as source of enzyme activity.
The assay is carried in high binding, clear, flat bottom 96 well assay plates which have been coated with recombinant ATF-2 (Biosource #PHF0043). Test compounds are incubated with p38 kinase for 2 h prior to initiating the kinase assay by the addition of ATP to obtain an assay concentration of 250 μM. Phosphorylation of ATF-2 is detected and quantified using an ELISA. This consists of sequential incubation in the presence of anti-phospho-ATF2, biotinylated anti-IgG and streptavidin-HRP. Incubation with an HRP chromogenic substrate (TMB) results in absorbance that is proportional to the amount of phosphorylated substrate produced. Absorbance is detected using a multiwell plate reader.
Compounds are diluted in DMSO prior to addition to assay buffer, the final DMSO concentration in the assay being 1%.
The IC50 is defined as the concentration at which a given compound achieves 50% inhibition of control.
A general note: In an ELISA, binding on a coated surface is turned into a signal by an enzyme label.

Molecules are shown by their SMILES. pEC50, pIC50: −log10 of the molar value.

T1 sequence (Q16539 whole entry): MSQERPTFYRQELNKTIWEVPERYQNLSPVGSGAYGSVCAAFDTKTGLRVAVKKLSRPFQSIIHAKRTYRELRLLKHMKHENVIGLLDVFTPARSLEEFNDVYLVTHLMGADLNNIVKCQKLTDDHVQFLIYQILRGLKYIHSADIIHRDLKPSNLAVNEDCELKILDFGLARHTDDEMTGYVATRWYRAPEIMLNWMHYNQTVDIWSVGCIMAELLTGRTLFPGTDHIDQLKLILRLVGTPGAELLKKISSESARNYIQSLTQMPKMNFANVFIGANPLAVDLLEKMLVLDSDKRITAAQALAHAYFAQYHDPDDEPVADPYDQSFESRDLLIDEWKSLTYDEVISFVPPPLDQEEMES

Usually pEC50 stands for the negative decadic logarithm of the EC50, by convention in mol/L. What is called pIC50 is −log10 of the IC50, conventionally taken in molar units. For `Cc1ccc(-n2nc(C(C)(C)C)cc2NC(=O)Nc2ccc(Sc3ccc4nnc(-c5cccc(OCCN6CCOCC6)c5)n4c3)cc2)cc1` [Example 10, 1-(5-tert-Butyl-2-p-tolyl-2H-pyrazol-3-yl)-3-(4-{3-[3-(2-morpholin-4-yl-ethoxy)-phenyl]-[1,2,4]triazolo[4,3-a]pyridin-6-ylsulfanyl}-phenyl)-urea], the pEC50 in test [1] is 7.00 to 8.00. For the same compound, in test [2], the “BAL cell influx induced by TS” value is “significantly inhibited”. For the same compound, the pIC50 on p38α is 7.00 to 8.00.
